Laboratory results published in the OPERA property sets (Mansouri et al. 2018).
Converted amounts (≈) assume the structure as drawn.

Conditions: for solubility: 20 °C

Row | SMILES | logP | solubility [µM]
1 | O=[N+]([O-])c1cc(C(F)(F)F)ccc1O | 2.34 | 
2 | CCC(C)c1ccc(O)c([N+](=O)[O-])c1 (stereo not given) | 3.84 | 144 (≈ 28.2 µg/mL)
3 | O=[N+]([O-])c1cc(-c2ccccc2)ccc1O | 3.71 | 38.9 (≈ 8.37 µg/mL)
4 | O=[N+]([O-])c1ccc(F)cc1O | 1.91 | 
5 | Cc1cc(O)ccc1[N+](=O)[O-] | 2.48 | 7760 (≈ 1190 µg/mL)
6 | O=Cc1ccc(O)c([N+](=O)[O-])c1 | 1.48 | 1120 (≈ 187 µg/mL)
7 | Cc1ccc([N+](=O)[O-])c(O)c1 | 2.31 | 1780 (≈ 272 µg/mL)
8 | O=[N+]([O-])c1ccc(O)cc1 |  | 83400 (≈ 11600 µg/mL)
9 | O=[N+]([O-])c1cc(Cl)ccc1O | 2.46 | 812 (≈ 141 µg/mL)
10 | Cc1cccc(O)c1[N+](=O)[O-] | 2.29 | 
11 | COc1ccc(O)c([N+](=O)[O-])c1 | 2.02 | 1450 (≈ 245 µg/mL)
12 | Cc1cc(O)c([N+](=O)[O-])cc1Cl | 2.93 | 40.7 (≈ 7.64 µg/mL)
